# Measurements: publication PMC8074287, “Analgesic and Anticancer Activity of Benzoxazole Clubbed 2-Pyrrolidinones as Novel Inhibitors of Monoacylglycerol Lipase” (Molecules, 2021)
# What was measured:
# 786-0 = assay: NCI60 single-dose SRB assay; assay type: cell-based, human; details: 786-0, Renal Cancer, 10 μM
# Experimental: (§1) Compounds 19 and 20 were supplied to National Cancer Institute (USA), for sulforhodamine B (SRB) assay and anticancer screening. Single-dose (10 µM) assay results for compounds 19 and 20 were provided as a mean of percent growth (% G) and growth inhibition (% GI) against 60 cell lines of nine types of cancers and are tabulated in Table 4. […] Both the compounds 19 and 20 were also found active on UO-31 renal cancer cell line with % GI of 21.18 and 29.95, respectively.
# (§2) Compounds 19 and 20 were supplied to National Cancer Institute (Bethesda, Maryland, USA), for in vitro sulforhodamine B (SRB) assay, anticancer screening on 60 cell lines of cancers of leukemia, melanoma, and tumors of the kidney, brain, breast, lung, colon, ovary, and prostate, as per their standard protocol. One dose anticancer results (NCI, USA) of compounds 19 and 20 are provided in the Supplementary Materials.
# NCI-H226 = assay: NCI60 single-dose SRB assay; assay type: cell-based, human; details: NCI-H226, Non-Small Cell Lung Cancer, 10 μM
# Experimental: as §1, §2
# MALME-3M = assay: NCI60 single-dose SRB assay; assay type: cell-based, human; details: Melanoma, 10 μM
# Experimental: as §1, §2
# OVCAR-3 = assay: NCI60 single-dose SRB assay; assay type: cell-based, human; details: OVCAR-3, Ovarian Cancer, 10 μM
# Experimental: as §1, §2
# MDA-MB-231/ATCC = assay: NCI60 single-dose SRB assay; assay type: cell-based, human; details: Breast Cancer, 10 μM
# Experimental: as §1, §2
# CAKI-1 = assay: NCI60 single-dose SRB assay; assay type: cell-based, human; details: CAKI-1, Renal Cancer, 10 μM
# Experimental: as §1, §2
# UO-31 = assay: NCI60 single-dose SRB assay; assay type: cell-based, human; details: UO-31, Renal Cancer, 10 μM
# Experimental: as §1, §2
# U251 = assay: NCI60 single-dose SRB assay; assay type: cell-based, human; details: U251, CNS Cancer, 10 μM
# Experimental: as §1, §2
# HL-60(TB) = assay: NCI60 single-dose SRB assay; assay type: cell-based, human; details: Leukemia, 10 μM
# Experimental: as §1, §2
# NCI-H23 = assay: NCI60 single-dose SRB assay; assay type: cell-based, human; details: NCI-H23, Non-Small Cell Lung Cancer, 10 μM
# Experimental: as §1, §2
# TK-10 = assay: NCI60 single-dose SRB assay; assay type: cell-based, human; details: TK-10, Renal Cancer, 10 μM
# Experimental: as §1, §2
# SR = assay: NCI60 single-dose SRB assay; assay type: cell-based, human; details: Leukemia, 10 μM
# Experimental: as §1, §2
# SK-MEL-28 = assay: NCI60 single-dose SRB assay; assay type: cell-based, human; details: SK-MEL-28, Melanoma, 10 μM
# Experimental: as §1, §2
# A549/ATCC = assay: NCI60 single-dose SRB assay; assay type: cell-based, human; details: Non-Small Cell Lung Cancer, 10 μM
# Experimental: as §1, §2
# SNB-19 = assay: NCI60 single-dose SRB assay; assay type: cell-based, human; details: SNB-19, CNS Cancer, 10 μM
# Experimental: as §1, §2
# DU-145 = assay: NCI60 single-dose SRB assay; assay type: cell-based, human; details: DU-145, Prostate Cancer, 10 μM
# Experimental: as §1, §2
# SK-OV-3 = assay: NCI60 single-dose SRB assay; assay type: cell-based, human; details: SK-OV-3, Ovarian Cancer, 10 μM
# Experimental: as §1, §2
# HOP-92 = assay: NCI60 single-dose SRB assay; assay type: cell-based, human; details: HOP-92, Non-Small Cell Lung Cancer, 10 μM
# Experimental: as §1, §2
# OVCAR-8 = assay: NCI60 single-dose SRB assay; assay type: cell-based, human; details: OVCAR-8, Ovarian Cancer, 10 μM
# Experimental: as §1, §2
# A498 = assay: NCI60 single-dose SRB assay; assay type: cell-based, human; details: A498, Renal Cancer, 10 μM
# Experimental: as §1, §2
# CCRF-CEM = assay: NCI60 single-dose SRB assay; assay type: cell-based, human; details: Leukemia, 10 μM
# Experimental: as §1, §2
# HS 578T = assay: NCI60 single-dose SRB assay; assay type: cell-based, human; details: Breast Cancer, 10 μM
# Experimental: as §1, §2
# NCI-H460 = assay: NCI60 single-dose SRB assay; assay type: cell-based, human; details: NCI-H460, Non-Small Cell Lung Cancer, 10 μM
# Experimental: as §1, §2
# T-47D = assay: NCI60 single-dose SRB assay; assay type: cell-based, human; details: Breast Cancer, 10 μM
# Experimental: as §1, §2
# hFAAH = biological target: T1, hFAAH (Homo sapiens, UniProt O00519); assay: Human FAAH inhibition assay (Cayman's assay kit); details: IC50, mean ± SEM (n = 3)
# T1 sequence (O00519 1-579): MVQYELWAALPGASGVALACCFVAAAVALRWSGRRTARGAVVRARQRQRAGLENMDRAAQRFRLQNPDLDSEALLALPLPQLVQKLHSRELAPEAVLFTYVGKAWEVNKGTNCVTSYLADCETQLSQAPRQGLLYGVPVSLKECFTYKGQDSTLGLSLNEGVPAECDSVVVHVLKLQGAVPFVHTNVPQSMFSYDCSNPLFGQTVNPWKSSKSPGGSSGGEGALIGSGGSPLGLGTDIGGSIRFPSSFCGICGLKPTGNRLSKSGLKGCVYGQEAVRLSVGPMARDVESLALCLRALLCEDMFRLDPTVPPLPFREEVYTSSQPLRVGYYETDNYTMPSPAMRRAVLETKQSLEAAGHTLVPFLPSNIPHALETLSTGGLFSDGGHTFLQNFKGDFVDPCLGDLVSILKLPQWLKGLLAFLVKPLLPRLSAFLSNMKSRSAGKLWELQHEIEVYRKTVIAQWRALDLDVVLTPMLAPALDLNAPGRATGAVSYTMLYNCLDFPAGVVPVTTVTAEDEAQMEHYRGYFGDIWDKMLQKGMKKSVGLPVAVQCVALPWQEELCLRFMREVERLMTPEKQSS
compound,measurement,setting,value
"O=C1CC(c2nc3ccccc3o2)CN1c1ccc([N+](=O)[O-])cc1 (stereo not shown) [Compound 19, 4-(Benzo[d]oxazol-2-yl)-1-(4-nitrophenyl)pyrrolidin-2-one]",% G,786-0,104.06%
same,% GI,786-0,−4.06%
same,% G,NCI-H226,98.63%
same,% GI,NCI-H226,1.37%
same,% G,MALME-3M,88.53%
same,% GI,MALME-3M,11.47%
same,% G,OVCAR-3,98.56%
same,% GI,OVCAR-3,1.44%
same,% G,MDA-MB-231/ATCC,88.41%
same,% GI,MDA-MB-231/ATCC,11.59%
same,% G,CAKI-1,97.19%
same,% GI,CAKI-1,2.81%
same,% G,UO-31,78.82%
same,% GI,UO-31,21.18%
same,% G,U251,100.97%
same,% GI,U251,−0.97%
same,% G,HL-60(TB),100.09%
same,% GI,HL-60(TB),−0.09%
same,% G,NCI-H23,93.07%
same,% GI,NCI-H23,6.93%
same,% G,TK-10,110.14%
same,% GI,TK-10,−10.14%
same,% G,SR,88.92%
same,% GI,SR,11.08%
same,% G,SK-MEL-28,111.25%
same,% GI,SK-MEL-28,−11.25%
same,% G,A549/ATCC,100.60%
same,% GI,A549/ATCC,−0.60%
same,% G,SNB-19,99.29%
same,% GI,SNB-19,0.71%
same,% G,DU-145,110.09%
same,% GI,DU-145,−10.09%
same,% G,SK-OV-3,88.34%
same,% GI,SK-OV-3,11.66%
same,% G,HOP-92,104.72%
same,% GI,HOP-92,−4.72%
same,% G,OVCAR-8,101.95%
same,% GI,OVCAR-8,−1.95%
same,% G,A498,113.46%
same,% GI,A498,−13.46%
same,% G,CCRF-CEM,93.58%
same,% GI,CCRF-CEM,6.42%
same,% G,HS 578T,101.81%
same,% GI,HS 578T,−1.81%
same,% G,NCI-H460,102.33%
same,% GI,NCI-H460,−2.33%
same,% G,T-47D,80.01%
same,% GI,T-47D,19.99%
same,IC50,hFAAH,55 ± 2.7 µM
"NS(=O)(=O)c1ccc(N2CC(c3nc4ccccc4o3)CC2=O)cc1 (stereo not shown) [Compound 20, 4-(4-(Benzo[d]oxazol-2-yl)-2-oxopyrrolidin-1-yl)benzenesulfonamide]",% G,786-0,98.99%
same,% GI,786-0,1.01%
same,% G,NCI-H226,92.75%
same,% GI,NCI-H226,7.25%
same,% G,MALME-3M,93.29%
same,% GI,MALME-3M,6.71%
same,% G,OVCAR-3,98.53%
same,% GI,OVCAR-3,1.47%
same,% G,MDA-MB-231/ATCC,80.11%
same,% GI,MDA-MB-231/ATCC,19.89%
same,% G,CAKI-1,92.35%
same,% GI,CAKI-1,7.65%
same,% G,UO-31,70.05%
same,% GI,UO-31,29.95%
same,% G,U251,95.21%
same,% GI,U251,4.79%
same,% G,HL-60(TB),96.15%
same,% GI,HL-60(TB),3.85%
same,% G,NCI-H23,92.19%
same,% GI,NCI-H23,7.81%
same,% G,TK-10,114.82%
same,% GI,TK-10,−14.82%
same,% G,SR,93.20%
same,% GI,SR,6.80%
same,% G,SK-MEL-28,101.79%
same,% GI,SK-MEL-28,−1.79%
same,% G,A549/ATCC,95.28%
same,% GI,A549/ATCC,4.72%
same,% G,SNB-19,97.02%
same,% GI,SNB-19,2.98%
same,% G,DU-145,111.62%
same,% GI,DU-145,−11.62%
same,% G,SK-OV-3,94.77%
same,% GI,SK-OV-3,5.23%
same,% G,HOP-92,77.78%
same,% GI,HOP-92,22.22%
same,% G,OVCAR-8,97.49%
same,% GI,OVCAR-8,2.51%
same,% G,A498,113.94%
same,% GI,A498,−13.94%
same,% G,CCRF-CEM,94.48%
same,% GI,CCRF-CEM,5.52%
same,% G,HS 578T,104.19%
same,% GI,HS 578T,−4.19%
same,% G,NCI-H460,104.20%
same,% GI,NCI-H460,−4.20%
same,% G,T-47D,83.24%
same,IC50,hFAAH,68 ± 2.1 µM
